Assay results reported in PubChem BioAssay AID179 (DTP/NCI, 2004).
Several values for one entry are separate records, joined by “and”; a condition that tells them apart may be missing. Equal values may be shown once. Activity calls are given as the source filed them.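 The calls were made as follows: active = compounds giving half or more protection of infected cells from virus-caused growth loss, again on retest; inactive = the rest.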 Where a SMILES comes first, the peptide text is derived from it. The star is where a group is joined. Cbz = O=C(OCc1ccccc1)*

Tested on: CEM cells HIV-1 protection, formazan growth assay
Experiment: NCI AIDS Antiviral Assay
Settings: for IC50: measured here: growth of uninfected CEM cells
Method in brief: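 Soluble formazan readout of cell growth; CEM cells ± HIV-1; 5 drug concs. ≥50% protection → retest; ≥50% again = moderately active; reproducible 100% = confirmed active.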

## O=C(N/C(=C\c1ccccc1O)C1NC(Cc2c[nH]c3ccccc23)C(=O)O1)c1ccccc1 (configuration not stated)
  EC50: > 100 µM
  IC50: 74.1 µM

## O=P1(O)Cc2ccccc2-c2ccccc21
  EC50: > 200 µM
  IC50: > 200 µM

## C[C@H](CCc1nc(C#N)c(N)o1)[C@H]1CC[C@H]2[C@@H]3CCC4C[C@@H](O)CC[C@]4(C)[C@H]3C[C@@H](O)[C@]12C (some centres not stated)
  EC50: > 20 µM
  IC50: 1.95 µM

## C/C(=N/OCCC(=O)O)C1CC1
  EC50: > 1450 µM
  IC50: > 1450 µM

## O=C(c1ccccc1)C1N=NN(Cc2ccccc2[N+](=O)[O-])C1C(=O)c1ccccc1 (configuration not stated)
  EC50: > 4.79 µM
  IC50: > 4.79 µM

## O=c1[nH]c(Nc2ccc(Cl)c(C(F)(F)F)c2)nc2nc[nH]c12
  EC50: > 200 µM
  IC50: 89.1 µM

## CC1CN1P(=O)(OCCC#N)N1CC1C (configuration not stated)
  EC50: > 200 µM
  IC50: > 200 µM

## CCOc1ccc(-n2c(=O)c(N=Nc3ccccc3Cl)c(O)n(-c3ccc(Br)cc3)c2=S)cc1
  EC50: > 174 µM
  IC50: > 174 µM

## CCCCCCCC/C=C\CCCCCCCC(=O)NCCN(CCN)C(=O)CCCCCCC/C=C\CCCCCCCC
  EC50: > 25.1 µM
  IC50: > 25.1 µM

## CCOc1cc(C2=NNc3n[nH]c(=S)n3N2)ccc1O
  EC50: 151 µM
  IC50: 331 µM

## COC(=O)CNC(=O)C(CC(C)C)NC(=O)C(CC(C)C)NC(=O)C(C)NC(=O)OCc1ccccc1 (configuration not stated) (Cbz-ALLG-OMe; configuration not given here)
  outcome: inactive

## Cc1ccc2nc3n(c2c1)C(c1c(F)cccc1F)SC3 (configuration not stated)
  EC50: 26.9 µM
  IC50: 45.7 µM

## CCC(=O)NC1Cc2cc(C)cc(C)c21 (configuration not stated)
  EC50: > 89.1 µM
  IC50: > 89.1 µM

## CCOP(=O)(OCC)/C(C#N)=C/c1ccc(N(C)C)cc1
  EC50: > 813 µM
  IC50: 437 µM

## CN1C(=O)[C@@H]2N(CSC2(C)C)C1=S
  EC50: > 200 µM
  IC50: > 200 µM

## CC(=O)Nc1ccc(S(=O)(=O)c2ccc(NC(C)=O)cc2)cc1
  EC50: > 200 µM
  IC50: > 200 µM

## COc1ccc2oc(C(=O)O)c3c2c1CCC3
  outcome: inactive

## COc1ccc(/C=C2\CCc3cc(OC)c(OC)cc3C2=O)cc1
  outcome: inactive

## O=c1ccn(C2OC(CN(O)CCC3C(O)C(CO)OC3n3ccc(=O)[nH]c3=O)C(O)C2O)c(=O)[nH]1 (configuration not stated)
  EC50: > 200 µM
  IC50: > 200 µM

## CCCOc1nc(N)c2cnn(C3CCCCO3)c2n1 (configuration not stated)
  EC50: > 912 µM
  IC50: 550 µM

## CC1(C)OC2OC(C(O)COC(=O)c3ccccc3)C(F)C2O1 (configuration not stated)
  EC50: > 209 µM
  IC50: > 209 µM

## O=c1[nH]c(-c2ccc([N+](=O)[O-])cc2)nc2ccc(Cl)cc12
  outcome: inactive

## COC(=O)NC1=Nc2ccccc2-c2ccccc2N1
  EC50: > 200 µM
  IC50: 123 µM

## CCn1nc(C(=O)O)c(=O)c2cc3c(cc21)OCO3
  EC50: > 200 µM
  IC50: > 200 µM

## CCCCC1(N=[N+]=[N-])C(=O)C2C=CC=C3c4ccccc4N(C1=O)C32 (configuration not stated)
  outcome: inactive

## CC(C)[Si](OC1=CCCCCC12C(=O)N(C)c1ccccc12)(C(C)C)C(C)C (configuration not stated)
  EC50: > 200 µM
  IC50: 33.9 µM

## CC(=O)Nc1c(C(=N)C#N)ncn1CCO
  EC50: > 200 µM
  IC50: > 200 µM

## N#CC(/C=C/c1ccccc1)Nc1ccccc1 (configuration not stated)
  EC50: > 22.4 µM
  IC50: > 22.4 µM

## O=C(CC(C(=O)c1ccco1)c1ccsc1)c1ccco1 (configuration not stated)
  EC50: > 200 µM
  IC50: 107 µM

## S=C1N=C(Cl)/C(=C\c2ccco2)N1
  EC50: > 200 µM
  IC50: > 200 µM

## C=CC1(O)CCCC=C1COCc1ccccc1 (configuration not stated)
  EC50: > 200 µM
  IC50: 33.1 µM

## COc1ccc(-c2c(C#N)c(N)n(C3OCC(OC(C)=O)C(OC(C)=O)C3OC(C)=O)c(=S)c2C#N)cc1 (configuration not stated)
  EC50: > 200 µM
  IC50: 20.9 µM and 29.5 µM

## CCOC(=O)/C(SC#N)=C(/N)N1CCCC1
  EC50: > 200 µM
  IC50: > 200 µM

## Brc1ccc(N=NN2CCCCC2)cc1
  EC50: > 200 µM
  IC50: 18.6 µM

## CCOC(=O)C(=O)C(/C(=N/N(C)C)C(=O)Nc1ccc(C)cc1C)c1nc2ccccc2[nH]c1=O (configuration not stated)
  EC50: > 380 µM
  IC50: 219 µM

## C=C1CC(COc2cc(Cl)nc(N)n2)C1
  EC50: > 200 µM
  IC50: 24.5 µM
